Source: PubChem BioAssay AID489041 (Sanford-Burnham Center for Chemical Genomics, 2010)
The source made the active and inactive calls. How the calls were made is not given here.

Test system: HEK-293T NF-kB luciferase reporter counterscreen, luminescence
Assay: inhibitors of HEK-293T NF-kB luciferase – HEK-293T cells, luminescence, counter-screen for T-cell antigen receptor NF-kB inhibitors, dose response (AID 489041)

SMILES	IC50
CC(Nc1ncnc2ccccc12)c1ccccc1 (centres undefined)	3.28 µM
C=C1C(=O)O[C@H]2C[C@@H](C)[C@@H]3C=CC(=O)[C@@]3(C)C[C@H]12	5.84 µM
Clc1cccc(Cl)c1OCCOCCNCc1ccccc1	68.4 µM (inactive)
Cc1cc(-c2ccc(S(=O)(=O)N(C)c3ccc(C)c(C)c3)s2)on1	7.86 µM
Cc1cccc(N2CCN(C(=O)c3c(-c4ccccc4Cl)noc3C)CC2)c1C	6.03 µM
Cc1ccc(NS(=O)(=O)c2ccc(C(=O)NC3CCN(Cc4ccccc4)CC3)cc2)cc1	7.66 µM
COc1cc(OC)c(/C=C2\C(=O)Nc3ccccc32)c(OC)c1	6.26 µM
COc1ccc(-c2csc(NC(=O)C3CCN(c4ncnc5sc(C)c(C)c45)CC3)n2)cc1OC	13.1 µM
COc1ccccc1N1CCN(C(=O)c2ccc(-c3ccc(Cl)cc3)o2)CC1	10.1 µM
Cc1nn(-c2ccccc2Cl)c(Cl)c1/C=N/Nc1nc2ccccc2s1	< 0.16 µM
O=C1/C(=C/c2ccc(N3CCOCC3)o2)SC(=Nc2ccccc2)N1CCc1c[nH]c2ccccc12	13.8 µM
O=c1cc(-c2cccc(F)c2)[nH]c2ccccc12	1.05 µM
O=C(c1cc(-c2ccncc2)nc2c(Cl)cccc12)N1CCN(c2ccccc2F)CC1	12.5 µM
O=Cc1cc2ccccc2nc1SCc1ccc(Cl)c(Cl)c1	5.54 µM
O=C(Nc1nc(-c2ccccn2)cs1)c1ccc(Cl)s1	4.44 µM
O=C(N=Nc1c(O)[nH]c2ccc(Br)cc12)c1ccccc1-n1cccc1	7.76 µM
COc1ccc(C(=O)N(C)Cc2cnn(Cc3ccccc3)c2)cc1S(=O)(=O)N1CCOCC1	22.9 µM (inactive)
Cn1nc(CC(=O)Nc2ccc(N3CCN(C(=O)OC(C)(C)C)CC3)cc2)c2ccccc2c1=O	0.76 µM
COc1ccccc1N1CCN(C(=O)C2c3ccccc3Oc3ccccc32)CC1	14.2 µM
CCn1ncc(C2=NOC(C(=O)NCc3ccc(Cl)cc3)C2)c1C (centres undefined)	26 µM (inactive)
CC1=NNC(=O)/C1=C\c1cn(-c2ccccc2)nc1-c1ccc(Cl)cc1	7.76 µM
Cc1cc(C)cc(NC(=O)c2cc(C)n(Cc3cccs3)c2C)c1	> 80 µM (inactive)
COC(=O)c1cnc(Oc2ccc(NC(=O)NC(=O)c3c(F)cccc3Cl)cc2)cc1C(F)(F)F	25.8 µM (inactive)
COc1ccc(NC(=O)/C(Cl)=C(/Cl)S(=O)Cc2ccc(C)cc2)cn1 (centres undefined)	5.5 µM
CCOCCOC(=O)c1[nH]c2c(c1C)C(=O)CC(c1ccccc1)C2 (centres undefined)	3.05 µM

SMILES	IC50
Cc1ccc(C(=O)Nc2cc3ccccc3oc2=O)cc1	0.94 µM
C/C=C(\C)C(=O)N[C@@H](c1ccccc1)[C@@H](O)C(=O)O[C@H]1C[C@@]2(O)[C@@H](OC(=O)c3ccccc3)C3[C@](C)(C(=O)[C@H](OC(C)=O)C(=C1C)C2(C)C)[C@@H](O)C[C@H]1OC[C@@]31OC(C)=O (some centres undefined)	> 80 µM (inactive)
CCn1cc(C(=O)NC2CCCc3c2cnn3-c2cccc(C)c2C)cn1 (centres undefined)	14.7 µM
COc1ccc(S(=O)(=O)/N=C2\C=C(Nc3ccc(O)cc3)C(=O)c3ccccc32)cc1	1.03 µM
COC(=O)c1ccccc1NC(=O)Cn1c(-c2nonc2N)nc2ccccc21	3.77 µM
CCCC(=O)NC(c1ccc(N(C)C)cc1)c1ccc2cccnc2c1O (centres undefined)	> 80 µM (inactive)
COc1cc(NS(=O)(=O)c2ccc(OC)c(C)c2C)c(OC)cc1Cl	5.28 µM
COc1ccc(OC)c(Nc2cc(-c3ccccc3)nc(N)n2)c1	3.41 µM
C=CCOC(=O)c1[nH]c2c(c1C)C(=O)CC(c1ccco1)C2 (centres undefined)	< 0.16 µM
COc1ccc(/C=c2/sc3n(c2=O)C(c2ccccc2OC)C2=C(N=3)c3ccccc3CC2)cc1O (centres undefined)	> 80 µM (inactive)
COc1cc(C(=O)N/N=C/c2cc([N+](=O)[O-])cs2)cc(OC)c1OC	1.91 µM
C/C=C/COC(=O)c1[nH]c2c(c1C)C(=O)CC(c1ccco1)C2 (centres undefined)	0.34 µM
O=C(NCCOc1ccccc1)c1cc([N+](=O)[O-])ccc1N1CCOCC1	72.2 µM (inactive)
Cc1ccc(C(=O)c2cc([N+](=O)[O-])ccc2N2CCCCC2)cc1	4.17 µM
Cc1ccc(-n2ncc3c(N4CCN(c5ccccc5)CC4)ncnc32)c(C)c1	3.24 µM
COc1ccc(-c2c(C#N)c(N)nc3c2CCc2ccccc2-3)cc1OC	8.28 µM
Cc1ccc(NS(=O)(=O)c2ccc(-c3cnc(C4CC4)o3)cc2)c(C)c1	1.47 µM
C=C(C=O)C[C@@H]1C[C@H](O)C2OC3C[C@]4(C)OC5/C=C\CC6OC7C(CC=CCC6OC5CCCC4OC3CC2O1)OC1CC2OC3CC(=O)OC3C[C@@H](C)C[C@@]2(C)OC1C[C@@H]7C (some centres undefined)	> 80 µM (inactive)
Cc1noc(C)c1COc1cccc(C(=O)OCC(=O)N2CC(=O)Nc3ccccc32)c1	24.9 µM (inactive)
CCOC(=O)c1ccccc1NS(=O)(=O)c1ccc(OCC)cc1	17.7 µM
CCOc1ccc(N/C(N)=N/c2nc(CSc3nnc(C)s3)cc(=O)[nH]2)cc1	29.9 µM (inactive)
O=S1(=O)Nc2c(ccc3cccnc23)-c2ccccc21	0.28 µM
COc1ccc(OC)c2c1C(=O)C(Cl)=C(Cl)C2=O	3.96 µM
CCOC(=O)c1[nH]c(C)c(C(=O)Nc2cc(Cl)ccc2C)c1C	4.39 µM
CC(C)(C)c1cc(C=C(C#N)C#N)cc(C(C)(C)C)c1O	13.1 µM

SMILES	IC50
Cc1ccc(Nc2nc(-c3c(C)nc4ccccn34)cs2)cc1	0.59 µM
CCN1C/C(=C/c2ccc(OC)c(O)c2)C(=O)/C(=C/c2ccc(OC)c(O)c2)C1	39 µM (inactive)
Cn1ncnc2c(=O)n(C)c(=O)nc1-2	1.11 µM
CCCc1cc(C(=O)Nc2cc(C)ccc2O)no1	> 80 µM (inactive)
CCOc1ccccc1NS(=O)(=O)c1ccc(-c2cnc(C3CC3)o2)cc1	1.79 µM
O=C(CNC(=O)c1ccco1)N=Nc1c(O)n(CCc2ccccc2)c2ccccc12	5.17 µM
CCn1c(C)cc(C(=O)CN2C(=O)c3ccccc3S2(=O)=O)c1C	5.36 µM
Nc1nc2n[nH]nc2c(=O)[nH]1	> 80 µM (inactive)
COc1ccc(Br)cc1/C(C)=N/NC1=NCCN1	9.87 µM
CCC(C)C(=O)N[C@@H](c1ccccc1)[C@@H](O)C(=O)O[C@H]1C[C@@]2(O)[C@@H](OC(=O)c3ccccc3)C3[C@](C)(C(=O)[C@H](OC(C)=O)C(=C1C)C2(C)C)[C@@H](O)C[C@H]1OC[C@@]31OC(C)=O (some centres undefined)	> 80 µM (inactive)
Cc1csc2sc(-c3ccnc(SCC(=O)NCc4ccccc4)n3)c(C)c12	3.8 µM
O=C(O)c1ccc(-c2ccc(-c3ccccc3)cc2)s1	9.3 µM
CCN(CC)c1ccc(NC(=O)c2cc(OC)cc(OC)c2)c(C)c1	6 µM
C=CCn1c(C)cc(C2=NNC(=NCC)SC2)c1C	1.43 µM
Cc1ccc(C(=O)O/N=C(\N)c2ccccn2)c(C)c1	0.53 µM
O=C(c1ccccc1)c1cc([N+](=O)[O-])ccc1N1CCOCC1	17.1 µM
c1ccc(-c2noc(-c3ccc4c(c3)OCO4)n2)nc1	1.4 µM
CCC1CCCCN1C(=O)c1cc(COc2ccc3ncccc3c2)on1 (centres undefined)	2.44 µM
O=S1(=O)C=C(Sc2nc3ccccc3s2)c2ccccc21	5.57 µM
C[C@]12CC[C@@H]3c4cc(O)c(O)cc4CC[C@H]3[C@@H]1CC[C@@H]2O	45 µM (inactive)
CC(=O)O[C@H]1C(=O)[C@@]2(C)[C@H]([C@H](OC(=O)c3ccccc3)[C@]3(O)C[C@H](OC(=O)[C@H](O)[C@@H](NC(=O)c4ccccc4)c4ccccc4)C(C)=C1C3(C)C)[C@]1(OC(C)=O)CO[C@@H]1C[C@@H]2O	> 80 µM (inactive)
CCOc1ccc(S(=O)(=O)NCc2ccccn2)cc1NC(=O)c1ccccc1	40.7 µM (inactive)
O=C(Nc1ccc(F)cc1)c1ccc(CN2CCc3ccccc3C2)cc1	4.71 µM
CCOC(=O)c1[nH]c2c(c1C)C(=O)CC(c1ccco1)C2 (centres undefined)	4.38 µM
CSc1nc(N(C)NC(=O)c2cccc(C)c2)c2ccccc2n1	4.16 µM

SMILES	IC50
COC(=O)C[C@]1(C(=O)OC)CN(C#N)N(c2ccc(Cl)cc2)C12c1ccccc1-c1ccccc12	20.1 µM (inactive)
COc1cc2nc(CN3CC=C(c4ccccc4)CC3)[nH]c(=O)c2cc1OC	2.5 µM
CCN(CC)S(=O)(=O)c1cc(NC(=O)CNc2cccc(S(=O)(=O)N3CCCC3)c2)ccc1C	2.52 µM
CCC(=O)NC(c1cccs1)c1ccc2cccnc2c1O (centres undefined)	1.61 µM
c1ccc(-c2cccc(-c3ccccn3)n2)nc1	> 80 µM (inactive)
O=C(N/N=C\c1c(O)ccc2ccccc12)c1cncc(Br)c1	11.2 µM
COc1ccccc1CNS(=O)(=O)c1ccc(-c2cnc(C3CC3)o2)cc1	2.6 µM
Oc1ccccc1N=Nc1nc(-c2ccccc2)c(-c2ccccc2)[nH]1	2.84 µM
CCn1ncc(C2=NOC(C(=O)NCc3ccccc3)C2)c1C (centres undefined)	2.39 µM
CC1CCCN(c2ncnc3c2cnn3-c2ccc(Cl)cc2)C1 (centres undefined)	8.88 µM
CCOC(=O)Nc1nc(-c2ccccc2)c(C(=O)c2ccccc2)s1	> 80 µM (inactive)
Cc1ccc(S(=O)(=O)/N=C2\C=C(Nc3ccc(O)cc3)C(=O)c3ccccc32)cc1	0.78 µM
COc1ccc(C[C@H](N)C(=O)N[C@H]2[C@@H](O)[C@H](n3cnc4c(N(C)C)ncnc43)O[C@@H]2CO)cc1	2.64 µM
Cc1cc(-c2ccc(C)c(S(=O)(=O)N3CCN(c4ccc([N+](=O)[O-])cc4)CC3)c2)on1	> 80 µM (inactive)
CC(=O)c1sc2c(c1OC(=O)c1ccc(Cl)cc1Cl)c(=O)n(-c1ccccc1)c(=S)n2-c1ccccc1	28.7 µM (inactive)
COc1ccccc1NC(=O)C1=C(C)Nc2nc3ccccc3n2C1c1cccs1 (centres undefined)	13.6 µM
CCN1/C(=C/c2ccc3ccccc3[n+]2CC)C=Cc2ccccc21	1.01 µM
CCCCC(=O)NC(c1ccc(Cl)cc1Cl)c1ccc2cccnc2c1O (centres undefined)	> 80 µM (inactive)
Cc1noc(C)c1COc1ccc(CC(=O)NCc2ccccc2)cc1	20.5 µM (inactive)
C=C1C(O)[C@@H]2O[C@]3(CC[C@H](/C=C/C(C)[C@@H]4CC(C)=CC5(O[C@H](C[C@@](C)(O)CO)CCC5O)O4)O3)CC[C@H]2O[C@@H]1C(O)CC(C)[C@H]1OC2(CCCCO2)CCC1C (some centres undefined)	< 0.16 µM
O=C(c1cn(Cc2ccccc2)nc1-c1ccccc1)N1CCN(c2ccccn2)CC1	> 80 µM (inactive)
O=C(Nc1ccc(N2CCCCC2)cc1)c1ccccn1	3.23 µM
CC1=CC(C)(C)N(S(=O)(=O)c2ccc(C)cc2)c2cc(C)ccc21	2.17 µM
CCOc1ccccc1N1CC(O)=C(c2nc3ccccc3s2)C1=N	8.73 µM
